Measurements: PubChem BioAssay AID248 (DTP/NCI, 2004)
“And” between values parts separate entries of the source, which are not always exact repeats. Identical values can stand only once. Toxic doses and inconclusive results are not listed. Cut-off read from the data, not from the text of the source: active = T/C of 150% or more; inactive = T/C below 125%.

System: L1210 leukemia ip in BDF1 mice, survival T/C
Test: NCI In Vivo Anticancer Drug Screen. Data for tumor model L1210 Leukemia (intraperitoneal) in B6D2F1 (BDF1) mice
Conditions: endpoint: mean survival time, higher = longer survival
Procedure, shortened: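 In this screen, tumor-bearing mice given compound are compared to those given vehicle, and their survival values are reported as a treated-to-control quotient.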

[1] = dose: 50.0 mg/kg/injection, schedule: Q04DX002 (ip), vehicle: saline with Tween-80
[2] = dose: 100.0 mg/kg/injection, schedule: Q04DX002 (ip), vehicle: saline with Tween-80
[3] = dose: 100.0 mg/kg/injection, schedule: Q04DX003 (ip), vehicle: saline
[4] = dose: 200.0 mg/kg/injection, schedule: Q04DX003 (ip), vehicle: saline
[5] = dose: 400.0 mg/kg/injection, schedule: Q04DX003 (ip), vehicle: saline
[6] = dose: 100.0 mg/kg/injection, schedule: Q04DX003 (ip), vehicle: Klucel (hydroxypropylcellulose) (HPC)
[7] = dose: 200.0 mg/kg/injection, schedule: Q04DX003 (ip), vehicle: Klucel (hydroxypropylcellulose) (HPC)
[8] = dose: 400.0 mg/kg/injection, schedule: Q04DX003 (ip), vehicle: Klucel (hydroxypropylcellulose) (HPC)
[9] = dose: 100.0 mg/kg/injection, schedule: Q01DX009 (ip), vehicle: Klucel (hydroxypropylcellulose) (HPC)
[10] = dose: 200.0 mg/kg/injection, schedule: Q01DX009 (ip), vehicle: Klucel (hydroxypropylcellulose) (HPC)
[11] = dose: 400.0 mg/kg/injection, schedule: Q01DX009 (ip), vehicle: Klucel (hydroxypropylcellulose) (HPC)
[12] = dose: 100.0 mg/kg/injection, schedule: Q04DX003 (ip), vehicle: saline with Tween-80
[13] = dose: 200.0 mg/kg/injection, schedule: Q04DX003 (ip), vehicle: saline with Tween-80
[14] = dose: 100.0 mg/kg/injection, schedule: Q01DX009 (ip), vehicle: saline
[15] = dose: 200.0 mg/kg/injection, schedule: Q01DX009 (ip), vehicle: saline
[16] = dose: 400.0 mg/kg/injection, schedule: Q01DX009 (ip), vehicle: saline
[17] = dose: 200.0 mg/kg/injection, schedule: Q04DX002 (ip), vehicle: saline with Tween-80

Measured: T/C

CCOC=Nc1c(/C=C(/O)C(=O)OCC)c[n+]([O-])nc1OC
inactive: dose: 25.0 mg/kg/injection, schedule: Q04DX002 (ip), vehicle: saline with Tween-80 92 % of control | dose: 25.0 mg/kg/injection, schedule: Q04DX002 (ip), vehicle: saline 92 % of control | [1] 96 % of control | dose: 50.0 mg/kg/injection, schedule: Q04DX002 (ip), vehicle: saline 96 % of control | [2] 89 % of control | dose: 100.0 mg/kg/injection, schedule: Q04DX002 (ip), vehicle: saline 96 % of control

Nc1ncnc2c1cnn2CCCl
inactive: dose: 100.0 mg/kg/injection, schedule: Q01DX001 (ip), vehicle: saline 101 % of control | [3] 106 % of control | dose: 132.0 mg/kg/injection, schedule: Q04DX003 (ip), vehicle: saline 104 % of control and 123 % of control | dose: 200.0 mg/kg/injection, schedule: Q01DX001 (ip), vehicle: saline 101 % of control | [4] 102 % of control and 124 % of control | dose: 300.0 mg/kg/injection, schedule: Q04DX003 (ip), vehicle: saline 104 % of control | dose: 400.0 mg/kg/injection, schedule: Q01DX001 (ip), vehicle: saline 102 % of control | [5] 101 % of control

Nc1nc(N)nc(-c2ccccc2N=NN2CCCCC2)n1
inactive: [6] 101 % of control | [7] 94 % of control | [8] 95 % of control

CCOC(=O)C1CCCCC1=O (stereo unspecified)
inactive: [9] 88 % of control | [6] 93 % of control | [10] 97 % of control | [7] 98 % of control | [11] 111 % of control | [8] 96 % of control

C/C(=N/O)c1ccc(/C(C)=N/O)cc1
inactive: dose: 75.0 mg/kg/injection, schedule: Q01DX009 (ip), vehicle: saline with Tween-80 104 % of control | [12] 95 % of control | dose: 150.0 mg/kg/injection, schedule: Q01DX009 (ip), vehicle: saline with Tween-80 107 % of control | dose: 200.0 mg/kg/injection, schedule: Q01DX009 (ip), vehicle: saline with Tween-80 107 % of control | [13] 96 % of control | dose: 400.0 mg/kg/injection, schedule: Q04DX003 (ip), vehicle: saline with Tween-80 95 % of control

CCCc1ccc(OCC(=O)O)c(OC)c1
inactive: dose: 75.0 mg/kg/injection, schedule: Q01DX001 (ip), vehicle: acetone 93 % of control | dose: 150.0 mg/kg/injection, schedule: Q01DX001 (ip), vehicle: acetone 92 % of control | dose: 300.0 mg/kg/injection, schedule: Q01DX001 (ip), vehicle: acetone 88 % of control

CC12CCC(C1)C(C)(C)C2[N+]#N (stereo unspecified)
inactive: dose: 75.0 mg/kg/injection, schedule: Q01DX001 (ip), vehicle: saline 105 % of control

CNC(=O)c1nc(C)c(C)nc1OCc1ccccc1
inactive: [14] 106 % of control | [3] 96 % of control | [15] 92 % of control | [4] 94 % of control | [16] 87 % of control | [5] 96 % of control

Clc1ccc(-c2cc(=[N+]3CCCCC3)ss2)cc1
inactive: dose: 100.0 mg/kg/injection, schedule: Q01DX009 (ip), vehicle: saline with Tween-80 100 % of control | [12] 104 % of control | [13] 94 % of control

O=C(O)C(CSC(c1ccccc1)c1ccccc1)NC(=O)C(c1ccccc1)c1ccccc1 (stereo unspecified)
inactive: [9] 112 % of control | [6] 97 % of control | [10] 101 % of control | [7] 99 % of control | [11] 98 % of control | [8] 94 % of control

O/N=C1\c2cc(Cl)ccc2-c2c(Cl)cc(Cl)cc21
inactive: dose: 100.0 mg/kg/injection, schedule: Q01DX001 (ip), vehicle: carboxymethylcellulose (CMC) 115 % of control | dose: 200.0 mg/kg/injection, schedule: Q01DX001 (ip), vehicle: carboxymethylcellulose (CMC) 100 % of control | dose: 400.0 mg/kg/injection, schedule: Q01DX001 (ip), vehicle: carboxymethylcellulose (CMC) 97 % of control

c1ccc(N=Nc2ccnnc2)cc1
inactive: [1] 102 % of control | [2] 91 % of control | [17] 105 % of control

COc1ccc(CCNC(=O)c2ccccc2N=Cc2cc(Cl)cc(Cl)c2O)cc1OC
inactive: dose: 75.0 mg/kg/injection, schedule: Q01DX009 (ip), vehicle: Klucel (hydroxypropylcellulose) (HPC) 94 % of control | dose: 150.0 mg/kg/injection, schedule: Q01DX009 (ip), vehicle: Klucel (hydroxypropylcellulose) (HPC) 96 % of control | dose: 300.0 mg/kg/injection, schedule: Q01DX009 (ip), vehicle: Klucel (hydroxypropylcellulose) (HPC) 96 % of control

CCC1=C(c2cc(Cl)c3ccccc3c2OCC(=O)O)OC(CC)(C(=O)c2cc(Cl)c3ccccc3c2OCC(=O)O)CC1 (stereo unspecified)
inactive: dose: 30.0 mg/kg/injection, schedule: Q01DX009 (ip), vehicle: saline with Tween-80 96 % of control | dose: 31.0 mg/kg/injection, schedule: Q01DX Z (ip), vehicle: other 92 % of control | dose: 60.0 mg/kg/injection, schedule: Q01DX009 (ip), vehicle: saline with Tween-80 94 % of control | dose: 62.0 mg/kg/injection, schedule: Q01DX Z (ip), vehicle: other 95 % of control | [12] 103 % of control | dose: 120.0 mg/kg/injection, schedule: Q01DX009 (ip), vehicle: saline with Tween-80 92 % of control | [13] 93 % of control | dose: 240.0 mg/kg/injection, schedule: Q01DX009 (ip), vehicle: saline with Tween-80 92 % of control

COc1cc(Cc2nccc3cc(OC)c(OC)cc23)c(C(C)=O)c(OC)c1
inactive: dose: 5.0 mg/kg/injection, schedule: Q01DX009 (ip), vehicle: saline 113 % of control | dose: 10.0 mg/kg/injection, schedule: Q01DX009 (ip), vehicle: saline 118 % of control | dose: 20.0 mg/kg/injection, schedule: Q01DX009 (ip), vehicle: saline 109 % of control | dose: 40.0 mg/kg/injection, schedule: Q01DX009 (ip), vehicle: saline 99 % of control | dose: 80.0 mg/kg/injection, schedule: Q01DX009 (ip), vehicle: saline 95 % of control

OCC(I)C(CO)[n+]1ccccc1 (stereo unspecified)
inactive: dose: 12.5 mg/kg/injection, schedule: Q01DX009 (ip), vehicle: saline 104 % of control | dose: 12.5 mg/kg/injection, schedule: Q04DX003 (ip), vehicle: saline 102 % of control | dose: 25.0 mg/kg/injection, schedule: Q01DX009 (ip), vehicle: saline 110 % of control | dose: 25.0 mg/kg/injection, schedule: Q04DX003 (ip), vehicle: saline 100 % of control | dose: 50.0 mg/kg/injection, schedule: Q01DX009 (ip), vehicle: saline 101 % of control | dose: 50.0 mg/kg/injection, schedule: Q04DX003 (ip), vehicle: saline 102 % of control

CCOc1ccccc1NC(=S)NC(=O)c1ccc(OC)cc1
inactive: [9] 104 % of control | [6] 109 % of control | [10] 93 % of control | [7] 102 % of control | [11] 93 % of control | [8] 100 % of control

CCCC(C)OS(=O)(=O)c1ccc(C)cc1 (stereo unspecified)
inactive: [14] 104 % of control | [2] 97 % of control | [15] 96 % of control | [17] 93 % of control | [16] 102 % of control | dose: 400.0 mg/kg/injection, schedule: Q04DX002 (ip), vehicle: saline with Tween-80 97 % of control

CN(C)S(=O)(=O)c1ccc(N)cc1
inactive: dose: 100.0 mg/kg/injection, schedule: Q01DX001 (ip), vehicle: other 91 % of control | dose: 200.0 mg/kg/injection, schedule: Q01DX001 (ip), vehicle: other 101 % of control | dose: 400.0 mg/kg/injection, schedule: Q01DX001 (ip), vehicle: other 90 % of control
